Measured values published in US20220378732A1, “SmartCore Compositions and Methods” (NPI, LLC, priority 2020, published 2022).

Key:
[1] = system: T2D mouse model; experiment: serum LPC-fatty acid levels after 4 weeks of administration in T2D mouse model; format: in vivo, mice; settings: for serum concentration of LPC-arachidonic acid (AA) / serum concentration of LPC-eicosapentaenoic acid (EPA) / serum concentration of α-linolenic acid (aLA): FIG. 5; for change in serum LPC-18:2 / change in serum LPC-DHA: T2D mouse model, 4 weeks of administration; for change in serum LPC-18:2: FIG. 3; for change in serum LPC-DHA: FIG. 4
Protocol: To validate the inventors' hypotheses on the biological activity of the lignan and methyl donor various animal experiments were performed using mice as test subjects. Diabetes (type 1 and type 2) was used as model disease for LPC deficiency. Type 2 (T2D) diabetic mice were 6-week-old BKS.Cg-Dock7m+/+Leprdb/J (db/db), leptin receptor deficient. Hyperglycemia was confirmed (BG>250 mg/dl). Upon confirmation, all animals were subjected to 4-week treatment as indicated below. Treatment groups were as follows: Control, MSM treatment alone, sesame seed oil treatment alone, and MSM+sesame seed oil treatment. For harvest, serum was collected for lipid panel and analyzed using standard clinical protocol and equipment. Tissues (brain, eyes, heart, liver, kidneys) for fatty acid analysis was frozen at −80° C., and liver sections preserved in formalin for histology. MSM was administered as 1% MSM solution in water: 15-20 ml water was given per ˜25 g mouse per day (6-8 g/kg dose for ˜25 g mouse; 3-5 g/kg dose for ˜40 g mouse). Sesamin was provided as 1.58 mg/mL sesamin in sesame seed oil with 0.12-0.15 mg/g sesamin in mouse food (T1D: 4.4 g food per mouse per day; T2D: 7-8 g food per mouse per day; 20-22 mg/kg dose for mouse (both models)). After 4 weeks of administration of the tested compounds in the T2D mouse model, LPC-18:2 and LPC-DHA were determined from plasma and exemplary results are shown in FIG. 3 and FIG. 4, respectively.

[2] = system: high-fat diet-induced dyslipidemia; settings: Nutrients 2016, 8, 276; cited from earlier work
[3] = system: mice with high-fat diet-induced diabetes; settings: Exp Physiol 100.11 (2015); cited from earlier work

SMILES	serum concentration of LPC-arachidonic acid (AA) [1]	serum concentration of LPC-eicosapentaenoic acid (EPA) [1]	serum concentration of α-linolenic acid (aLA) [1]	change in serum LPC-18:2 [1]	change in serum LPC-DHA [1]	effect on high-fat diet-induced dyslipidemia and kidney injury [2]	effect on exercise capacity and skeletal muscle mitochondrial function [3]
CS(C)(=O)=O [MSM, methylsulfonylmethane]	did not result in an increase	did not result in an increase	did not result in an increase	did not trigger a statistically relevant change	did not trigger a statistically relevant change		
c1cc2c(cc1[C@H]1OC[C@H]3[C@@H]1CO[C@@H]3c1ccc3c(c1)OCO3)OCO2 [sesamin]	did not result in an increase	did not result in an increase	did not result in an increase	did not trigger a statistically relevant change	did not trigger a statistically relevant change	ameliorating high-fat diet-induced dyslipidemia and kidney injury	prevent decline in exercise capacity and impairment of skeletal muscle mitochondrial function
